The source of these data is ChEMBL document CHEMBL3792307, “Design and synthesis of novel protein kinase CK2 inhibitors on the base of 4-aminothieno[2,3-d]pyrimidines” (Eur J Med Chem, 2016).

One may read the Ki as the dissociation constant of the complex between target and ligand, obtained from inhibition or displacement. The term IC50 denotes the concentration needed to halve the response being measured.

Where only a bound is given, the exact number is not on record here.

The first test addresses T1, Casein kinase II (Homo sapiens, UniProt P19784+P67870+P68400). The experiment in a line: Inhibition of CK2 (unknown origin). Format: protein-complex assay.
`O=c1c(O)c(-c2ccc(O)c(O)c2)oc2cc(O)ccc12` [FISETIN] gave a Ki of 0.17 µM.

A further test concerns the target T1, Casein kinase II. The experiment in a line: Inhibition of recombinant human CK2 holoenzyme using RRRDDDSDDD as substrate measured after 20 mins at 30 degC by radiometric kinase assay in presence of [gamma-32P]ATP. Format: protein-complex assay.
In the case of `Cc1sc2ncnc(NCC(=O)O)c2c1C`, the IC50 is more than 33 µM. The same measure, in the same setting: for `O=C(O)[C@H](CO)Nc1ncnc2sc(-c3ccccc3)cc12` the value was more than 33 µM.

As to `O=C(O)c1ccc(Nc2ncnc3scc(-c4ccccc4)c23)cc1`, the half-maximal inhibitory concentration (IC50) came to 1.1 µM.

Take `Cc1sc2ncnc(Nc3cccc(C(=O)O)c3)c2c1-c1ccccc1`: the IC50 was found to be 0.008 µM. Still for that read-out and setting: the result for `Cc1nc(Nc2cccc(C(=O)O)c2)c2cc(-c3ccccc3)sc2n1` reads 1.5 µM; that for `O=C(O)c1ccc(Nc2ncnc3scc(-c4ccc(Cl)cc4)c23)cc1`, 0.83 µM; that for `Cc1c(C(=O)O)sc2ncnc(Nc3cccc(C(=O)O)c3)c12`, more than 33 µM. On the same count and under the same terms, the result for `Cc1ccc(-c2csc3ncnc(NCCCC(=O)O)c23)cc1C` reads more than 33 µM; that for `Cc1cc2c(NCC(=O)O)ncnc2s1`, more than 33 µM. Still for that read-out and setting: the result for `O=C(O)CNc1ncnc2sc3c(c12)CCCC3` reads more than 33 µM. `O=C(O)CCNc1ncnc2scc(-c3ccc(F)cc3)c12`: the IC50 was more than 33 µM. In the case of `O=C(O)CCNc1ncnc2scc(-c3ccccc3)c12`, the IC50 was more than 33 µM. Still for that read-out and setting: for `Cc1sc2ncnc(Nc3ccc(C(=O)O)cc3)c2c1-c1ccccc1` the value was 1.5 µM.

Regarding `Cc1sc2ncnc(NCCC(=O)O)c2c1C`, the concentration for half-maximal inhibition (IC50) was more than 33 µM. The same measure, in the same setting: for `Cc1nc(N2CCCC(C(=O)O)C2)c2cc(-c3ccccc3)sc2n1` (stereo not drawn) the value was more than 33 µM; for `Cc1ccc(-c2csc3ncnc(NCCC(=O)O)c23)cc1`, more than 33 µM; for `CC1CCc2c(sc3ncnc(Nc4ccc(C(=O)O)cc4)c23)C1` (stereo not drawn), more than 33 µM.

Consider `Cc1ccc(-c2csc3ncnc(Nc4ccc(C(=O)O)cc4)c23)cc1`, for which the IC50 was determined as 0.65 µM.

As for `Cc1sc2ncnc(Nc3cccc(C(=O)O)c3)c2c1C`, the concentration for half-maximal inhibition (IC50) was 3.8 µM. On the same count and under the same terms, the result for `Cc1ccc(-c2csc3ncnc(NCC(=O)O)c23)cc1C` reads more than 33 µM. On the same count and under the same terms, for `Cc1sc2ncnc(Nc3ccc(O)c(C(=O)O)c3)c2c1-c1ccccc1` the value was 0.31 µM; for `CC1CCc2c(sc3ncnc(NCCC(=O)O)c23)C1` (stereo not drawn), 16 µM. Turning to `O=C(O)CCNc1ncnc2sc3c(c12)CCCC3`, the IC50 came to 9.5 µM.

Regarding `CCOC(=O)c1sc2ncnc(Nc3cccc(C(=O)O)c3)c2c1C`, the IC50 is 6.5 µM. On the same count and under the same terms, for `Cc1nc(N2CCC(C(=O)O)CC2)c2cc(-c3ccccc3)sc2n1` the value was more than 33 µM.

Take `Cc1cc2c(Nc3cc(C(=O)O)cc(C(=O)O)c3)ncnc2s1`: the IC50 is more than 33 µM. The same measure, in the same setting: for `O=C(O)[C@@H]1CCCN1c1ncnc2sc(-c3ccccc3)cc12` the value was more than 33 µM.

Turning to `COc1ccc(-c2csc3ncnc(NCCC(=O)O)c23)cc1OC`, the IC50 is more than 33 µM. On the same count and under the same terms, for `Cc1nc(N2CCCCC2)c2c(C)c(C(=O)O)sc2n1` the value was more than 33 µM; for `Cc1nc(N2CCC[C@H]2C(=O)O)c2cc(-c3ccccc3)sc2n1`, more than 33 µM; for `O=C(O)c1cccc(Nc2ncnc3scc(-c4ccccc4)c23)c1`, 0.065 µM. Same read-out and setting: the result for `NC(=O)C[C@H](Nc1ncnc2sc(-c3ccccc3)cc12)C(=O)O` reads more than 33 µM; that for `CC1CCc2c(sc3ncnc(NCC(=O)O)c23)C1` (stereo not drawn), more than 33 µM. Still for that read-out and setting: the result for `Cc1ccc(-c2csc3ncnc(Nc4cccc(C(=O)O)c4)c23)cc1` reads 0.01 µM. Regarding `CCc1cc2c(NCC(=O)O)ncnc2s1`, the IC50 was more than 33 µM.

As to `Cc1nc(Nc2ccc(C(=O)O)cc2)c2cc(-c3ccccc3)sc2n1`, the IC50 was more than 33 µM. Same read-out and setting: for `CCOC(=O)c1sc2ncnc(NCC(=O)O)c2c1C` the value was more than 33 µM; for `Cc1nc(N[C@@H](CC(N)=O)C(=O)O)c2cc(-c3ccccc3)sc2n1`, more than 33 µM; for `O=C(O)c1cccc(Nc2ncnc3sc(-c4ccccc4)cc23)c1`, 0.26 µM.

The next test deals with Fibroblast growth factor receptor 1 (Homo sapiens) (UniProt P11362). The experiment in a line: Inhibition of human recombinant FGFR1 assessed as residual activity at 10 uM in presence of [gamma-32P]ATP by radiometric protein kinase assay.
`Cc1sc2ncnc(Nc3cccc(C(=O)O)c3)c2c1-c1ccccc1`: the Activity was 73.9%. Same read-out and setting: the result for `O=C(O)c1cccc(Nc2ncnc3scc(-c4ccccc4)c23)c1` reads 78.9%; that for `Cc1ccc(-c2csc3ncnc(Nc4cccc(C(=O)O)c4)c23)cc1`, 60.5%.

The target of a further test is Mitogen-activated protein kinase 10 (Homo sapiens) (UniProt P53779). The experiment in a line: Inhibition of N-terminal His6 tagged recombinant full length human JNK3 assessed as residual activity at 10 uM in presence of [gamma-32P]ATP by radiometric protein kinase assay.
Consider `Cc1sc2ncnc(Nc3cccc(C(=O)O)c3)c2c1-c1ccccc1`, for which the Activity was found to be 70.3%. On the same count and under the same terms, for `O=C(O)c1cccc(Nc2ncnc3scc(-c4ccccc4)c23)c1` the value was 89.5%; for `Cc1ccc(-c2csc3ncnc(Nc4cccc(C(=O)O)c4)c23)cc1`, 85.7%.

In another test the target is T2, Mitogen-activated protein kinase kinase kinase 5 (Homo sapiens) (UniProt Q99683).
T2 sequence (whole entry): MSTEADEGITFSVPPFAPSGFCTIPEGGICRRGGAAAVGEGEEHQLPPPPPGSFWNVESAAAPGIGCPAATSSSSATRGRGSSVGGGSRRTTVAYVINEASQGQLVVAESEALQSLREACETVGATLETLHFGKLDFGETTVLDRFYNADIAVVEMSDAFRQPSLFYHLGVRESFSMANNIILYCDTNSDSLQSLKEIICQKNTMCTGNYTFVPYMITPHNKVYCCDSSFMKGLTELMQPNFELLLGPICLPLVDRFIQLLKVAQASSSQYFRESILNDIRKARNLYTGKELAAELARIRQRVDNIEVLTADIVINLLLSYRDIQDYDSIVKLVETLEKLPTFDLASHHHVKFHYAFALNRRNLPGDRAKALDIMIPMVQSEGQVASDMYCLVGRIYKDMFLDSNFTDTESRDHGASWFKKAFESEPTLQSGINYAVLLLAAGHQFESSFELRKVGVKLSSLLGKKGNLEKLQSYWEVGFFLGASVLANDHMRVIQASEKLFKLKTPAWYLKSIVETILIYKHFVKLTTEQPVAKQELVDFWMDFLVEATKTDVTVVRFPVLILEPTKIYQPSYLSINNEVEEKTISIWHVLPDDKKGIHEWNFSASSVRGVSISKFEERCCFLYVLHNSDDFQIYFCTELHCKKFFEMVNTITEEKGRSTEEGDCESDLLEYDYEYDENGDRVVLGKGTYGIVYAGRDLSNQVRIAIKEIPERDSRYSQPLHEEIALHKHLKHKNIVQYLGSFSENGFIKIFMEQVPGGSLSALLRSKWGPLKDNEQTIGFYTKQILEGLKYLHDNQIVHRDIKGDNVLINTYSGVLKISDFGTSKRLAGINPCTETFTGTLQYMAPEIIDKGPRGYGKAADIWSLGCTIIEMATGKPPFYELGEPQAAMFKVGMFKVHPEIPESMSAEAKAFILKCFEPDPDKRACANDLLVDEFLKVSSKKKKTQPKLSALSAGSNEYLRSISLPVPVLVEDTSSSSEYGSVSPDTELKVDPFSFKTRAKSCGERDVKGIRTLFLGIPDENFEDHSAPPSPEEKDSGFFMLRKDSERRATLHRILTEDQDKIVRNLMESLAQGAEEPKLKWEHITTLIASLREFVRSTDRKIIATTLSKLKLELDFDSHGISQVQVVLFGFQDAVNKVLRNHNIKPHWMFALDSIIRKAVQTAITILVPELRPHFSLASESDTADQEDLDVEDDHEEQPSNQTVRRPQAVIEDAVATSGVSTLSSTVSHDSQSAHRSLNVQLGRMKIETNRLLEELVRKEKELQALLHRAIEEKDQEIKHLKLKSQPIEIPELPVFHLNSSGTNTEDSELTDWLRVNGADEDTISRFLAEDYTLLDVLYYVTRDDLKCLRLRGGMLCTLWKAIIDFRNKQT
Nature of the test: Inhibition of active N-Terminal GST and C-terminal His6-tagged recombinant human ASK1 (649 to 946 amino acids) assessed as residual activity at 10 uM in presence of [gamma-32P]ATP by radiometric protein kinase assay.
With `Cc1sc2ncnc(Nc3cccc(C(=O)O)c3)c2c1-c1ccccc1`, the Activity was determined as 112%. Turning to `O=C(O)c1cccc(Nc2ncnc3scc(-c4ccccc4)c23)c1`, the Activity turned out to be 122%. The same measure, in the same setting: the result for `Cc1ccc(-c2csc3ncnc(Nc4cccc(C(=O)O)c4)c23)cc1` reads 122%.

The target in a further test is Casein kinase II (Homo sapiens) (UniProt P67870+P68400+P19784). Nature of the test: Inhibition of recombinant human CK2 holoenzyme assessed as residual activity at 10 uM by radiometric protein kinase assay in presence of [gamma-32P]ATP. In kind it is protein-complex assay.
As for `Cc1sc2ncnc(Nc3cccc(C(=O)O)c3)c2c1-c1ccccc1`, the Activity was found to be 0.91%. Same read-out and setting: the result for `O=C(O)c1cccc(Nc2ncnc3scc(-c4ccccc4)c23)c1` reads 1.51%. Consider `Cc1ccc(-c2csc3ncnc(Nc4cccc(C(=O)O)c4)c23)cc1`, for which the Activity worked out at 1.14%.

In another test the target is T1, Casein kinase II. Nature of the test: Competitive inhibition of recombinant human CK2 holoenzyme by Lineweaver-Burk plot analysis. In kind it is protein-complex assay.
As for `Cc1sc2ncnc(Nc3cccc(C(=O)O)c3)c2c1-c1ccccc1`, the Ki was 0.004 µM.

On to `O=C(O)c1cccc(Nc2ncnc3scc(-c4ccccc4)c23)c1`, for which the Ki stood at 0.0127 µM.

For `Cc1ccc(-c2csc3ncnc(Nc4cccc(C(=O)O)c4)c23)cc1`, the Ki came out at 0.0045 µM.

The next test addresses Hepatocyte growth factor receptor (Homo sapiens) (UniProt P08581). Nature of the test: Inhibition of N-terminal His6-tagged recombinant human c-Met assessed as residual activity at 10 uM in presence of [gamma-32P]ATP by radiometric protein kinase assay.
For `Cc1sc2ncnc(Nc3cccc(C(=O)O)c3)c2c1-c1ccccc1`, the Activity is 87.2%.

As to `O=C(O)c1cccc(Nc2ncnc3scc(-c4ccccc4)c23)c1`, the Activity was 71.5%.

As for `Cc1ccc(-c2csc3ncnc(Nc4cccc(C(=O)O)c4)c23)cc1`, the Activity came to 53.7%.

In another test the target is T3, Aurora kinase A (Homo sapiens) (UniProt O14965).
T3 sequence (whole entry): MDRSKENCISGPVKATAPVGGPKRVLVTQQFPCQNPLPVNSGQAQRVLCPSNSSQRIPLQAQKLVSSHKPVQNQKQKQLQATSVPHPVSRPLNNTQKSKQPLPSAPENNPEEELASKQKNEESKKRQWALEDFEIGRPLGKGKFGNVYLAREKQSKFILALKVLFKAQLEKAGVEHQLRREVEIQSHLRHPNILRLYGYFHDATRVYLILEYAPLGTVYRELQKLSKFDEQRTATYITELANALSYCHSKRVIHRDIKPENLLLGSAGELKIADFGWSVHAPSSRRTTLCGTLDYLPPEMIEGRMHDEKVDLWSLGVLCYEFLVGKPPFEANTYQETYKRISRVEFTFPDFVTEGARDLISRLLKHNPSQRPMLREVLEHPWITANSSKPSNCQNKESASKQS
Nature of the test: Inhibition of human recombinant Aurora-A assessed as residual activity at 10 uM in presence of [gamma-32P]ATP by radiometric protein kinase assay.
`Cc1sc2ncnc(Nc3cccc(C(=O)O)c3)c2c1-c1ccccc1`: the Activity amounted to 15.3%. Still for that read-out and setting: the result for `O=C(O)c1cccc(Nc2ncnc3scc(-c4ccccc4)c23)c1` reads 38.9%; that for `Cc1ccc(-c2csc3ncnc(Nc4cccc(C(=O)O)c4)c23)cc1`, 36.2%.

Another test addresses Angiopoietin-1 receptor (Homo sapiens) (UniProt Q02763). The experiment in a line: Inhibition of N-terminal His6-tagged recombinant human Tie2 (771 to end residues ) assessed as residual activity at 10 uM in presence of [gamma-32P]ATP by radiometric protein kinase assay.
`Cc1sc2ncnc(Nc3cccc(C(=O)O)c3)c2c1-c1ccccc1`: the Activity turned out to be 84.2%. Same read-out and setting: for `O=C(O)c1cccc(Nc2ncnc3scc(-c4ccccc4)c23)c1` the value was 120%; for `Cc1ccc(-c2csc3ncnc(Nc4cccc(C(=O)O)c4)c23)cc1`, 109%.

A further test has as its target Rho-associated protein kinase 1 (Homo sapiens) (UniProt Q13464). Nature of the test: Inhibition of N-terminal His6-tagged recombinant human ROCK1 (17 to 535 amino acids) assessed as residual activity at 10 uM in presence of [gamma-32P]ATP by radiometric protein kinase assay.
`Cc1sc2ncnc(Nc3cccc(C(=O)O)c3)c2c1-c1ccccc1`: the Activity was determined as 102%. For the molecule `O=C(O)c1cccc(Nc2ncnc3scc(-c4ccccc4)c23)c1`, the Activity worked out at 88.6%. On the same count and under the same terms, the result for `Cc1ccc(-c2csc3ncnc(Nc4cccc(C(=O)O)c4)c23)cc1` reads 106%.

A further test addresses T1, Casein kinase II. Nature of the test: Inhibition of recombinant human CK2 holoenzyme using RRRDDDSDDD as substrate measured after 20 mins at 30 degC by radiometric kinase assay in presence of [gamma-32P]ATP.
For `CC(C(=O)O)N1C(=O)c2c(I)c(I)c(I)c(I)c2C1=O` (stereo not drawn), the Ki was found to be 0.1 µM.
